# Reference: article PMC10066365, “Nemacol is a small molecule inhibitor of C. elegans vesicular acetylcholine transporter with anthelmintic potential” (Nature Communications, 2023)
# Values joined by “and” are separate entries in the source; they are usually repeats but may differ in a detail not shown here. Identical values can stand only once. Like-named read-outs stand apart in the source and are kept apart here.
# Legend:
# C. elegans = C. elegans motor phenotype scoring on solid media (Punc/jerky-unc, coiled, paralyzed), wild-type young adults; assay type: in vivo, Caenorhabditis elegans; settings: for any phene, mean % fraction of young adults exhibiting any phenotype (coiled, jerky-Unc or paralyzed) / atypical locomotion (number of animals) / coiled (number of animals) / no phene (number of animals) / paralyzed (number of animals): one hour; for any phene, mean % fraction of young adults exhibiting any phenotype (coiled, jerky-Unc or paralyzed): mean of three biological replicates; for atypical locomotion (number of animals) / coiled (number of animals) / no phene (number of animals) / paralyzed (number of animals): young adults, 20 animals per trial, single replicate counts; for EC50: Caenorhabditis elegans, read-out: C. elegans - motor disruption EC50
# [1] = tested on: Dirofilaria immitis microfilariae; assay: Dirofilaria immitis microfilariae immobility assay (DiroImager, 72 h); settings: Dirofilaria immitis microfilariae
# Procedure: We conducted experiments with the Missouri isolate of Dirofilaria immitis in two labs. In the first set of experiments, shown as part of Fig. 3c, D. immitis microfilariae and larval stage 3 (L3) worms were assayed in the laboratories of Bayer Animal Health GmbH (Monheim, Germany). For microfilariae immobility assays, approximately 250 freshly purified microfilariae were cultured in single wells of a 96-well microtiter plate containing supplemented RPMI 1640 medium[68],[69]. […] Microfilariae exposed to medium substituted with 1% DMSO were used as negative controls. Motility of microfilariae was evaluated after 72 h of drug exposure using an image-based approach—DiroImager, developed by Bayer Technology Services. As described in detail in refs. [68],[69], the DiroImager is an automated high-throughput platform that allows for high-resolution optical imaging of an entire 96-well microtiter plate.
# [2] = tested on: Dirofilaria immitis L3/L4; assay: Dirofilaria immitis L3/L4 motility assay (DiroImager, 72 h); settings: Dirofilaria immitis L4
# Pristionchus pacificus = Pristionchus pacificus motor disruption dose-response on solid media, 1 h; settings: for mean % any phene (coiled, jerky-Unc or paralyzed): Pristionchus pacificus young adults, mean of three biological replicates; for EC50: Pristionchus pacificus, 1 h, read-out: P. pacificus motor disruption EC50
# [3] = any motor phenotype after 1 h on solid media, ± 95% CI
# [4] = conc 3.75, observed at one hour
Compound,"any phene, mean % fraction of young adults exhibiting any phenotype (coiled, jerky-Unc or paralyzed) (C. elegans; 3.75uM) [%]",atypical locomotion (number of animals) (C. elegans; 3.75uM),coiled (number of animals) (C. elegans; 3.75uM),no phene (number of animals) (C. elegans; 3.75uM),paralyzed (number of animals) (C. elegans; 3.75uM),"any phene, mean % fraction of young adults exhibiting any phenotype (coiled, jerky-Unc or paralyzed) (C. elegans; 15uM) [%]",atypical locomotion (number of animals) (C. elegans; 15uM),coiled (number of animals) (C. elegans; 15uM),no phene (number of animals) (C. elegans; 15uM),paralyzed (number of animals) (C. elegans; 15uM),"any phene, mean % fraction of young adults exhibiting any phenotype (coiled, jerky-Unc or paralyzed) (C. elegans; 60uM) [%]",atypical locomotion (number of animals) (C. elegans; 60uM),coiled (number of animals) (C. elegans; 60uM),no phene (number of animals) (C. elegans; 60uM),paralyzed (number of animals) (C. elegans; 60uM),"% effect (motility), DIROIM MF ([1]; 0.016 µM) [%]","% effect (motility), DIROIM MF ([1]; 0.08 µM) [%]","% effect (motility), DIROIM MF ([1]; 0.4 µM) [%]","% effect (motility), DIROIM MF ([1]; 2 µM) [%]","% effect (motility), DIROIM MF ([1]; 10 µM) [%]",further results
Clc1ccc(N2CCN(CC3CCCCC3)CC2)cc1 [Nemacol-10],0,0,0,20,0,27.5,5 and 4 and 3 and 1 and 2,1 and 2 and 0 and 3,14 and 13 and 18,0 and 1 and 3,55.6944,8 and 14 and 12 and 11 and 6 and 7,1 and 0 and 2,11 and 4 and 7 and 8 and 12 and 13,4 and 2 and 0,0,0,0,0,0,"EC50 (C. elegans; [3]): 45.7 ± 15.7 µM; % effect (motility), DIROIM L4 ([2]; 2 µM): 0%; % effect (motility), DIROIM L4 ([2]; 10 µM): 0%; % effect (motility), DIROIM L4 ([2]; 50 µM): 25%; mean % any phene (coiled, jerky-Unc or paralyzed) (Pristionchus pacificus; [4]): 0.8333%; mean % any phene (coiled, jerky-Unc or paralyzed) (Pristionchus pacificus; conc 15, observed at one hour): 3.333%; mean % any phene (coiled, jerky-Unc or paralyzed) (Pristionchus pacificus; conc 60, observed at one hour): 6.667%; EC50 (Pristionchus pacificus): > 60 µM"
CCN1CCN(CC2CCCCC2)CC1 [Nemacol-11],3.333,0 and 3 and 1,0,20 and 17 and 19,0,6.667,0 and 5 and 3,0,20 and 15 and 17,0,19.1667,1 and 0 and 13 and 9,0,19 and 20 and 7 and 11,0,0,0,0,0,0,"EC50 (C. elegans; [3]): > 60 µM; % effect (motility), DIROIM L4 ([2]; 2 µM): 10%; % effect (motility), DIROIM L4 ([2]; 10 µM): 5%; % effect (motility), DIROIM L4 ([2]; 50 µM): 0%; mean % any phene (coiled, jerky-Unc or paralyzed) (Pristionchus pacificus; [4]): 0%; mean % any phene (coiled, jerky-Unc or paralyzed) (Pristionchus pacificus; conc 15, observed at one hour): 0%; mean % any phene (coiled, jerky-Unc or paralyzed) (Pristionchus pacificus; conc 60, observed at one hour): 3.333%; EC50 (Pristionchus pacificus): > 60 µM"
c1ccc(N2CCN(CC3CCCCC3)CC2)cc1 [Nemacol-12],16.1842,0 and 7 and 11,0 and 1,20 and 11 and 9,0,39.1667,4 and 2 and 0 and 1 and 17 and 10,0 and 3 and 8,16 and 18 and 20 and 19 and 0,0 and 2,84.1667,11 and 14 and 7 and 10 and 2 and 1,3 and 4 and 5 and 6 and 14 and 19,6 and 2 and 7 and 4 and 0,0 and 1 and 4,0,0,0,0,0,"EC50 (C. elegans; 1 h): 18.8 ± 17.5 µM; % effect (motility), DIROIM L4 ([2]; 2 µM): 6%; % effect (motility), DIROIM L4 ([2]; 10 µM): 0%; % effect (motility), DIROIM L4 ([2]; 50 µM): 5%; mean % any phene (coiled, jerky-Unc or paralyzed) (Pristionchus pacificus; [4]): 0%; mean % any phene (coiled, jerky-Unc or paralyzed) (Pristionchus pacificus; conc 15, observed at one hour): 38.3333%; mean % any phene (coiled, jerky-Unc or paralyzed) (Pristionchus pacificus; conc 60, observed at one hour): 98.3333%; EC50 (Pristionchus pacificus): 17.3 ± 6.3 µM"
O=[N+]([O-])c1ccc(N2CCN(c3ccccc3O)CC2)cc1 [Nemacol-13],0.8333,0 and 1,0,20 and 19,0,2.5,0 and 2 and 1,0,20 and 18 and 19,0,20,0 and 11 and 13,0,20 and 9 and 7,0,0,0,0,0,0,"EC50 (C. elegans; [3]): > 60 µM; % effect (motility), DIROIM L4 ([2]; 2 µM): 0%; % effect (motility), DIROIM L4 ([2]; 10 µM): 0%; % effect (motility), DIROIM L4 ([2]; 50 µM): 0%; mean % any phene (coiled, jerky-Unc or paralyzed) (Pristionchus pacificus; [4]): 0%; mean % any phene (coiled, jerky-Unc or paralyzed) (Pristionchus pacificus; conc 15, observed at one hour): 0%; mean % any phene (coiled, jerky-Unc or paralyzed) (Pristionchus pacificus; conc 60, observed at one hour): 9.167%; EC50 (Pristionchus pacificus): > 60 µM"
O=[N+]([O-])c1cccc(CN2CCN(C3CCCCC3)CC2)c1 [Nemacol-14],0.8333,0,0,20 and 19,0 and 1,0,0,0,20,0,6.667,0 and 2,0 and 2,20 and 18 and 16,0,0,0,0,0,0,"EC50 (C. elegans; [3]): > 60 µM; % effect (motility), DIROIM L4 ([2]; 2 µM): 0%; % effect (motility), DIROIM L4 ([2]; 10 µM): 5%; % effect (motility), DIROIM L4 ([2]; 50 µM): 5%; mean % any phene (coiled, jerky-Unc or paralyzed) (Pristionchus pacificus; [4]): 0%; mean % any phene (coiled, jerky-Unc or paralyzed) (Pristionchus pacificus; conc 15, observed at one hour): 0.8333%; mean % any phene (coiled, jerky-Unc or paralyzed) (Pristionchus pacificus; conc 60, observed at one hour): 12.5%; EC50 (Pristionchus pacificus): > 60 µM"
O=[N+]([O-])c1ccc(CN2CCN(C3CCCC3)CC2)cc1 [Nemacol-15],0,0,0,20,0,2.5,0 and 1 and 2,0,20 and 19 and 18,0,23.3333,2 and 1 and 4 and 5 and 9,0,18 and 19 and 15 and 14 and 11,0 and 3 and 2,0,0,0,0,0,"EC50 (C. elegans; [3]): > 60 µM; % effect (motility), DIROIM L4 ([2]; 2 µM): 5%; % effect (motility), DIROIM L4 ([2]; 10 µM): 0%; % effect (motility), DIROIM L4 ([2]; 50 µM): 10%; EC50 (Pristionchus pacificus): > 60 µM"
